Measurements as given in patent publication US20110190274A1, “SALT OF, AND PROCESSES FOR THE PREPARATION OF, 1-ISOPROPYL-4-HEXAHYDRO-1H-1,4-DIAZEPINE” (GLAXO GROUP LIMITED, priority 2008, published 2011).
Where a name gives a salt, the structure may show the parent alone. Read-outs that look alike come from different tables or passages of the source. Blank lines part the entries; values can stand above or below the molecule they belong to.

Experiments:
[1] = Gravimetric vapour sorption (GVS), water sorption/desorption isotherm at varying relative humidity; format: physicochemical; details: for water reversibly adsorbed and/or absorbed, and/or desorbed (GVS): relative to minimum mass; for weight gain relative to the minimum mass at 0% RH (GVS) / weight gain cf. minimum mass (GVS): 25° C.
Description: Gravimetric vapour sorption (GVS) data were acquired on a Hiden IGA-Sorp analyser model (available from Hiden Isochema Ltd., 231 Europa Boulevard, Gemini Business Park, Warrington WA5 7TN, United Kingdom), generating a full sorption/desorption isotherm using water vapour perfusion at 25° C. under nitrogen gas and at varying relative humidities (RH).
23 milligrams of a sample of the crystalline Form 1 of 1-isopropyl-4-{[4-(tetrahydro-2H-pyran-4-yloxy)phenyl]carbonyl}hexahydro-1H-1,4-diazepine mono-maleate prepared in Example 4 were placed into a clean and dry tared sample mesh pan and weighed using the IGA-Sorp internal balance.
(i) starting from about 30% RH and increasing to about 90% RH in increments of about 10% RH (results shown as the solid line in the middle and on the right of FIG. 5), and then (ii) decreasing from about 90% RH to 0% RH in increments of about 10% RH (results shown as the dotted line in FIG. 5), and then (iii) increasing from 0% RH to about 30% RH, in increments of about 5% RH up to ca. 10% RH, and then in increments of about 10% RH from ca. 10% to ca. 30% RH (results shown as the solid line on the left of FIG. 5).
The weight of the sample was recorded after each ca. 10% RH increment. The point of equilibrium, after each ca. 10% RH increment, was automatically determined using a 97% asymptote setting.
Gravimetric Vapour Sorption (GVS) data, on the solid 1-isopropyl-4-{[4-(tetrahydro-2H-pyran-4-yloxy)phenyl]carbonyl}hexahydro-1H-1,4-diazepine hydrochloride from Example 2, Part C (the “kinetic” solid hydrochloride salt produced by fast crystallisation, and before purification by recrystallisation), were acquired on a DVS-1 SMS model (available from Surface Measurement System (SMS)), generating a full sorption/desorption isotherm using water vapour perfusion at 25° C. under nitrogen gas and at varying relative humidities (RH).
22 milligrams of the specified solid hydrochloride salt sample were placed into a clean and dry tared sample glass pan and weighed using the DVS-1 internal balance.
(i) starting from about 30% RH and increasing to about 90% RH in increments of about 10% RH (results shown as the line in the middle and on the right of FIG. 6, going from ca. 7-8% weight gain cf. minimum mass at ca. 30% RH, to ca. 14-15% weight gain cf. minimum mass at ca. 90% RH), and then (ii) decreasing from about 90% RH to 0% RH in increments of about 10% RH (results shown as the line in FIG. 6, starting from ca. 14-15% weight gain cf. minimum mass at ca. 90% RH, going towards the left almost horizontally to ca. 14% weight gain at ca. 30% RH, and then going rapidly down to 0% weight gain at 0% RH), and then (iii) increasing from 0% RH to about 30% RH in increments of about 10% RH (results shown as the line on the bottom left of FIG. 6, going from 0% weight gain at 0% RH to about 2% weight gain at ca. 30% RH).
The weight of the sample was recorded after each ca. 10% RH increment. The point of equilibrium was automatically determined using a 0.02 dm/dt setting.

[2] = target: T1, histamine H3 receptor (Homo sapiens, UniProt Q9Y5N1); assay: histamine H3 functional antagonist assay using membrane prepared from cultured H3 cells; format: biochemical
T1 construct: host or cells: cultured H3 cells (membranes)
T1 sequence (Q9Y5N1 whole entry): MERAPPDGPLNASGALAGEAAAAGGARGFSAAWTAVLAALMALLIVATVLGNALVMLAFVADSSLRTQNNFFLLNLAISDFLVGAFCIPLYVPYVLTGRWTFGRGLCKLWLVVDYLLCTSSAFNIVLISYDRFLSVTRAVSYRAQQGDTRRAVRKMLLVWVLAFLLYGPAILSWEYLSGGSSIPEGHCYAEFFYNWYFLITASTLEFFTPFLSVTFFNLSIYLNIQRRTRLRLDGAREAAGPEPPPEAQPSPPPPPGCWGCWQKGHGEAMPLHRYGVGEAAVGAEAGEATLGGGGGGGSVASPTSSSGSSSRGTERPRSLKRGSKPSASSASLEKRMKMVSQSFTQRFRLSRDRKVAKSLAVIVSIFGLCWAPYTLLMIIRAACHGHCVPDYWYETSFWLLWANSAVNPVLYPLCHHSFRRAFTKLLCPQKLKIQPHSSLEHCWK
Description: 1-Isopropyl-4-{[4-(tetrahydro-2H-pyran-4-yloxy)phenyl]carbonyl}hexahydro-1H-1,4-diazepine hydrochloride was tested using substantially the histamine H3 functional antagonist assay disclosed on pages 47-49, and in particular page 48 line 26 to page 49 line 7, of WO 2009/030716 A1 (Glaxo Group Limited). The result is expressed as a functional pKi (fpKi) value. A functional pKi is the negative logarithm of the antagonist equilibrium dissociation constant as determined in the H3 functional antagonist assay using membrane prepared from cultured H3 cells. The result given is an average of a number of experiments.

[3] = Karl Fischer analysis of water content; format: physicochemical; details: normal United Kingdom room humidity
Description: A Karl Fischer analysis of water content was carried out on the crystalline Form 1 mono-maleate salt prepared in Example 4 (at normal United Kingdom room humidity). This Karl Fischer analysis reported a water content of less than 0.1% w/w.

[4] = target: T2, histamine H3 receptor (Rattus norvegicus, UniProt Q9QYN8); details: following oral administration to the rat; cited from earlier work
T2 construct: from tissue; host or cells: rat cortex
T2 sequence (Q9QYN8 whole entry): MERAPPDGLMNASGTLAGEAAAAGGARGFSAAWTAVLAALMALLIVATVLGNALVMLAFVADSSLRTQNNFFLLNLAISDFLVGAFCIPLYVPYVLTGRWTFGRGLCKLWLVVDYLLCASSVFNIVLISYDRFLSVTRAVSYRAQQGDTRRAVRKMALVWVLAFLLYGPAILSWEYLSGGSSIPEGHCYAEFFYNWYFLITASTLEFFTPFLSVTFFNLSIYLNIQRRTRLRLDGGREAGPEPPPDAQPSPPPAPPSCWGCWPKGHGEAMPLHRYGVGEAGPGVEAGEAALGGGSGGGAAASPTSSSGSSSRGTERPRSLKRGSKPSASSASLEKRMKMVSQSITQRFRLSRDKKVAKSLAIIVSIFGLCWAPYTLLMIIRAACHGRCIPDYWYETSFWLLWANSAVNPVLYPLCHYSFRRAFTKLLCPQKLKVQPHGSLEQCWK

[5] = tested on: rats; details: certain oral doses; cited from earlier work
[6] = tested on: rodent; details: literature reports; cited from earlier work
[7] = Hygroscopicity and stability of the solid diazepine intermediate salts in air; format: physicochemical; details: for hygroscopicity of the solid: air at normal humidities, normal relative humidity (e.g. ca. 30%) at 25° C.
From the text: (i) The use of 1-isopropyl-hexahydro-1H-1,4-diazepine bis-trifluoroacetate allows the avoidance of the use of toxic dioxane in the preparation of 1-(isopropyl)-hexahydro-1H-1,4-diazepine dihydrochloride (from the BOC-protected precursor e.g. Intermediate 1), which preparation typically (see e.g. Intermediate 2 herein) uses HCl (e.g. 4M HCl) in dry dioxane (to avoid the water present in aqueous hydrochloric acid) in order to obtain solid 1-(isopropyl)hexahydro-1H-1,4-diazepine dihydrochloride. […] This hygroscopicity makes it difficult to quantify and weigh the dihydrochloride salt for the coupling reaction, and also can lead to the presence of undesired water in the coupling reaction (e.g. with DCI).

[8] = across the 0-90% relative humidity range at 25° C. under nitrogen

water reversibly adsorbed and/or absorbed, and/or desorbed (GVS) [1, 8]: 0.4-0.5 % w/w
Structure (SMILES): CC(C)N1CCCN(C(=O)c2ccc(OC3CCOCC3)cc2)CC1 [Example 2 Part A, 1-Isopropyl-4-{[4-(tetrahydro-2H-pyran-4-yloxy)phenyl]carbonyl}hexahydro-1H-1,4-diazepine]

Ki ([2]; 12 experiments, read-out: range of measured fpKi values): 0.501 to 20 nM
Ki ([2]; mean of 12 experiments, read-out: functional pKi (fpKi), H3 antagonism (converted)): ~5.01 nM
water sorption compared with crystalline Form 1 mono-maleate (GVS) [1, 8]: higher quantities of water
water reversibly adsorbed and/or absorbed, and/or desorbed (GVS) [1, 8]: 14-15 % w/w
weight gain relative to the minimum mass at 0% RH (GVS) ([1]; at about 30% RH, start of first sorption): 7-8 % w/w
weight gain relative to the minimum mass at 0% RH (GVS) ([1]; at about 90% RH, end of first sorption): 14-15 % w/w
weight gain cf. minimum mass (GVS) ([1]; at ca. 30% RH on desorption from ca. 90% RH): ca. 14%
weight gain cf. minimum mass (GVS) ([1]; at ca. 30% RH on re-sorption from 0% RH): about 2%
Structure (SMILES): CC(C)N1CCCN(C(=O)c2ccc(OC3CCOCC3)cc2)CC1.Cl [Example 2 Part C, 1-Isopropyl-4-{[4-(tetrahydro-2H-pyran-4-yloxy)phenyl]carbonyl}hexahydro-1H-1,4-diazepine hydrochloride]

water content (Karl Fischer) [3]: less than 0.1 % w/w
Structure (SMILES): CC(C)N1CCCN(C(=O)c2ccc(OC3CCOCC3)cc2)CC1.O=C(O)/C=C\C(=O)O [Example 4, 1-Isopropyl-4-{[4-(tetrahydro-2H-pyran-4-yloxy)phenyl]carbonyl}hexahydro-1H-1,4-diazepine mono-maleate salt (crystalline Form 1)]

Structure (SMILES): CNC(=O)c1ccc(Oc2ccc3c(c2)CCN(C2CCC2)CC3)nc1 [GSK189254]
ex vivo binding in the rat cortex [4]: inhibited
performance in cognition paradigms [5]: improved performance

Structure (SMILES): CC(C)(C)CCC#C[C@@H]1C[C@H]1c1c[nH]cn1 [GT-2331]
cognitive effect in rodent models [6]: cognitive enhancing properties

hygroscopicity of the solid [7]: very hygroscopic
Structure (SMILES): CC(C)N1CCCNCC1.Cl.Cl [Intermediate 2, 1-Isopropyl-hexahydro-1H-1,4-diazepine dihydrochloride]

stability of the solid [7]: long-term stability
hygroscopicity of the solid [7]: substantially non-hygroscopic
Structure (SMILES): CC(C)N1CCCNCC1 [Intermediate 3, 1-Isopropyl-hexahydro-1H-1,4-diazepine bis-trifluoroacetate salt]

Structure (SMILES): O=C(c1ccc(OCCCc2cnc[nH]2)cc1)C1CC1 [ciproxifan]
cognitive effect in rodent models [6]: cognitive enhancing properties

Structure (SMILES): NC(=NCc1ccc(Cl)cc1)SCCCc1cnc[nH]1 [clobenpropit]
cognitive effect in rodent models [6]: cognitive enhancing properties

Structure (SMILES): S=C(NC1CCCCC1)N1CCC(c2cnc[nH]2)CC1 [thioperamide]
cognitive effect in rodent models [6]: cognitive enhancing properties
